Measured values from a melting point compilation (Tetko et al.; mined from patent text by program, amines drawn as free bases though some values may be those of a salt).

Row | SMILES | melting point [°C]
1 | Cc1csc(N2CCN(Cc3ccc(C(=O)NCc4ccccc4)cc3)C2=O)n1 | 185 to 186
2 | CCOC(=O)CCN1CCN(C2=Nc3ccccc3Sc3ccc(Cl)cc32)CC1 | 79 to 80
3 | COc1ccc2c(c1)C(C)(C)[C@H]1CCCN(C(C)=O)[C@H]1C2 (relative stereo) | 81 to 85
4 | O=[N+]([O-])c1c(-c2c(C(F)(F)F)[nH]c(-c3ccc(Cl)cc3)c2[N+](=O)[O-])csc1Br | 186 to 190
5 | CCCCCOc1ccc(OCC(O)CC#CCCCC(=O)O)cc1 (centres undefined) | 58 to 60
6 | O=C(CC(=O)c1ccccc1)C(=O)CC(=O)c1ccccc1 | 178 to 180
7 | COc1ccccc1N1CCN(C2CCN(c3csc4ccccc34)CC2)CC1 | 156 to 158
8 | CC(C)c1cccc(C(C)C)c1NC(=O)N(Cc1ccc(O)cc1)CC1(c2cccc(N(C)C)c2)CCCCC1 | 166 to 168
9 | Cc1cc(C)c(C)c(OC(C)(C)C(=O)O)c1 | 91 to 94
10 | Clc1ccc2nc(Cl)cn2c1 | 155 to 156
11 | C=CCCN1C(=O)C2C3CCC(O3)C2C1=O (centres undefined) | 64 to 65
12 | Cc1oc2ccccc2c(=O)c1O | 179 to 180
13 | O=C(O)c1ccc(C(=O)Nc2ccccc2C(c2ccc(O)cc2)c2ccc(O)cc2)cc1 | 280 to 282
14 | N#CC(c1ccccc1)(c1ccccc1)[C@H]1CCCN(CCc2ccccc2)C1 | 134 to 138
15 | O=C(O)c1c(Cl)ccc2cc(C(F)(F)F)c(C(F)(F)F)nc12 | 108 to 111
16 | CNc1ccc(-n2nc3c4ccccc4[nH]cc-3c2=O)cc1 | 302 to 304
17 | CCOCCOc1ccc(CCNC(=O)/C=C/c2cccs2)cc1S(=O)(=O)NC(=S)NC | 51
18 | CCCOc1ccccc1-c1nc2nc(NC(C)=O)ncc2c(=O)[nH]1 | 273 to 274
19 | COC(=O)Cc1ccccc1NC(=S)NN(C)C | 130 to 131
20 | CC(C)c1ccc2c(c1)C(=O)CC21CNC(=O)C1 (centres undefined) | 165 to 167
21 | CN1C(=O)CC[C@]2(C)c3ccc(Oc4ccc5ccccc5n4)cc3CC[C@@H]12 | 172 to 174
22 | ON=C(Cc1ccc(F)cc1)c1ccncc1 | 155
23 | CN(C)c1cccc2c(S(=O)(=O)Nc3ncc(Br)nc3Br)cccc12 | 178
24 | CSC1Oc2cc3ccccc3cc2C1=O (centres undefined) | 118 to 120
25 | CCc1ccc(Oc2ccc([C@@H]3CCCN4CCS(=O)(=O)N=C34)cc2)cc1 | 152 to 153

Row | SMILES | melting point [°C]
26 | Cc1c(C#N)c(O)cc2nc(Cc3ccccc3)nn12 | 319 to 320
27 | CCCC(=O)SCC(Cc1ccccc1)C(=O)Nc1cccc(C(=O)O)c1C (centres undefined) | 136 to 141
28 | O=C(O)C(Cc1ccccc1)NC(=S)Cc1cccc2ccccc12 (centres undefined) | 130 to 132
29 | CC(C)(C)NC(=O)C1CCN(C(=O)CCl)CC1 | 140 to 142
30 | CCn1c(CC(=O)NOCc2ccccc2)nc2cc(F)c(N3CCN(C)CC3)cc21 | 165 to 168
31 | COc1ccc(OC(C)(C)C(=O)O)cc1OCCCc1cn(-c2ccc(C(F)(F)F)cn2)nc1C(C)C | 106 to 107
32 | Cc1ccc2c3c(ccc2n1)OC[C@H](CNC[C@H]1CCc2c(c4cc(F)ccc4n2C)C1)O3 | 127 to 129
33 | COC(=O)C(=O)CC(=O)c1ccc(Cc2ccc(Cl)c(Cl)c2)cc1 | 104 to 106
34 | COc1cc(-c2ccccc2F)c(Cl)cc1C(=O)N1Cc2cccn2Cc2ccccc21 | 192 to 194
35 | Cc1cc(CC#N)cc(CC#N)c1 | 75 to 78
36 | CCN(CC)CCNC(=O)N1CCC(S(=O)(=O)c2ccc(Cl)cc2)C1 (centres undefined) | 86 to 87.5
37 | O=C(c1nn(-c2ccc(F)cc2F)c2c1C1CCC2C1)N1CCCc2ccccc21 (centres undefined) | 103 to 107
38 | CC(C)(C)OC(=O)N1CC2CCCCC(C1)C2C(=O)O (centres undefined) | 218 to 222
39 | Cc1ccn(-c2ccc(C(=O)N3Cc4ccc(CN(C)C)n4Cc4ccccc43)c(Cl)c2)n1 | 100 to 102
40 | O=C1Nc2ccccc2C1(O)c1ccc2c(c1)OCO2 (centres undefined) | 177 to 180
41 | CCOc1ccc2[nH]c(=O)n(CCN(C(C)C)C(C)C)c2c1 | 89
42 | COCCc1nc2c(N)nc3ccccc3c2n1CC(C)(C)CNC(=O)c1ccccc1 | 103 to 125
43 | CCOC(=O)c1ncn2c1COc1ccccc1-2 | 135 to 137
44 | Cc1cc(Cl)cc(C(=O)Nc2ccc(F)cn2)n1 | 156
45 | Cc1nc2cccc3n(CCCCCCNS(=O)(=O)CC(F)(F)F)c(=O)c1n23 | 141 to 143
46 | CS(=O)(=O)c1ccc(-c2cnn(CC(F)(F)F)c(=O)c2-c2ccc(Cl)cc2)cc1 | 55 to 57
47 | CCn1c(CO)nc(C(C)C)c1Sc1cc(C#N)cc(C#N)c1 | 167 to 169
48 | NS(=O)(=O)c1ccc(C#Cc2cnc3c(C(F)(F)F)cc(-c4ccc(C(F)(F)F)cc4)cn23)cc1 | 278 to 280
49 | CCOC(=O)C1=C(C)NC(SCc2ccc(OC)cc2)=NC1c1cccc([N+](=O)[O-])c1 (centres undefined) | 95 to 97
